Reference: US20240100105A1, “BACTERIOPHAGE TREATMENT FOR ACNE AND BIOFILMS” (priority 2017, published 2024)

Assays:
[1] = system: P. acnes PA1 biofilm; experiment: Efficacy of phage mixtures on P. acnes biofilm; type: cell-based, Propionibacterium acnes; settings: for Remaining log bacteria after phage or antibiotic treatment of biofilm: phage 10^5 total PFU, Erythromycin 100 μg/mL
Description: To test our phage against P. acnes biofilms, the following experiment is performed on biofilms produced in the laboratory. An overnight culture of PA1 is diluted 1:1 with fresh BHIS and incubated for 4 hours at 37° C. after which the culture is once again diluted 1:1 this time with anacrobized BHIS supplemented with 1% glucose (final conc. 0.5%). Next, a 96-well plate (Thermo Fisher Scientific, Waltham, Massachusetts) is seeded with 200 μL of the diluted culture per well. The wells are sealed using 8-well strip caps (Thermo Fisher Scientific, Waltham, Massachusetts). This is incubated for 3 days to let the biofilm form. After 72 hours, 10 μL of either mixture 1 (PAP-12, PA1-9 and PA1-13), mixture 2 (PA7-1, PA1-9 and PA1-13), mixture 3 (PAP-12, PA1-9, PA1-13 and PS7-1) or 2 μL of Erythromycin is added to the relevant wells. The amount of phage added per mixture corresponds to 10^5 total PFU while for the antibiotic Erythromycin, a final concentration of 100 μg/mL (enough to inhibit PA1 growth when not in a biofilm) is used.
At 24 hrs or 48 hrs post-treatment depending on the wells, the medium is carefully removed from each well and the remaining biofilm is picked from each well into a separate Eppendorf tube using a sterile tip. At this point, 1 mL of fresh BHIS is added to the biofilm tubes, sonicated to remove the phage inside for 5 minutes (Elmasonic S 100, at 37 kHz) (Elma Schmidbauer GmbH (Singen, Germany), and centrifuged (4 min, 4000 rpm, 25° C.). The supernatant containing the phage is carefully removed to a clean tube for quantification and the process was repeated a total of 3 times to make sure all phage are removed.
To quantify the surviving bacteria, the pellet is re-suspended in 100 μL BHIS, 10-fold serially diluted in BHIS and plated on BHIS agar plates. The plates are incubated for 72 hrs at 37° C. anaerobically after which the colonies are counted and results rounded to the nearest log. In parallel, the phage quantities inside the biofilm are tested by taking the supernatant set aside earlier, and using the aforementioned plaque assay to assess the original quantities.

[2] = system: P. granulosum clinical isolates 2004-8, 2004-4 and 2002-1; experiment: Spot/drop assay on clinical isolates of P. granulosum (2004-8, 2004-4 and 2002-1); type: cell-based; settings: Clindamycin 1% gel ~10 μL; Erythromycin 20 μg/mL 5 μL, applied directly to bacterial lawn
Description: These bacterial strains show sensitivity to Clindamycin (1% gel, ˜10 μL) and Erythromycin (20 μg/mL, 5 μL) when the antibiotics are applied directly to a bacterial lawn of these strains, but are resistant to all the tested phage.

Structure (SMILES): CC[C@H]1OC(=O)[C@H](C)[C@@H](O[C@H]2C[C@@](C)(OC)[C@@H](O)[C@H](C)O2)[C@H](C)[C@@H](O[C@@H]2O[C@H](C)C[C@H](N(C)C)[C@H]2O)[C@](C)(O)C[C@@H](C)C(=O)[C@H](C)[C@@H](O)[C@]1(C)O [Erythromycin]
- Remaining log bacteria after phage or antibiotic treatment of biofilm ([1]; 24 hours post treatment): More than 9 Logs CFU
- Remaining log bacteria after phage or antibiotic treatment of biofilm ([1]; 48 hours post treatment): 8 Logs CFU
- decrease in bacterial counts in biofilm ([1]; after 24 hours): no visible decrease
- remaining bacteria per milliliter ([1]; after 48 hours): 8 logs
- response of P. granulosum isolates to antibiotics [2]: sensitivity
